Measurements reported in paper PMC4374761, “Pharmacokinetics and Metabolism of 4R-Cembranoid” (PLoS ONE, 2015).
Values joined by “and” are separate entries in the source; they are usually repeats but may differ in a detail not shown here. Equal entries are not always repeated. Where two headings read alike, the source gives them in different places.

Legend:
[1] = 4R plasma stability in rat plasma; type: in vitro ADME; conditions: 10 μM 4R
Procedure: The samples were centrifuged at 18,000 x g for 10 min and the supernatants (100–250 μL) transferred to an HPLC vial containing 900 μl of 60% acetonitrile. The LC-MS/MS analysis was carried out using a high-performance liquid chromatography system consisting of a Shimadzu LC-20AD pump, (Shimadzu Scientific Instruments, Columbia, MA), and a CTC analytics PAL autosampler operating at 10°C (Leap technologies, Carrboro, NC). The MS instrument used was a 4000 QTrap triple quadrupole tandem mass spectrometer (Applied Biosystems/MDS Sciex, Foster City, CA). Electrospray ionization in positive ion mode (ESI+) was used. The detection of 4R was performed using the multiple reaction monitoring (MRM) mode. […] All samples were assayed in duplicate.

[2] = Plasma and brain 4R concentrations and pharmacokinetics in male rats; type: in vivo, Sprague-Dawley rat; conditions: for Kp at 1.5 h: brain and plasma, 90 min after dose, read-out: Ratio Cmax brain/ plasma; for Kp at 1.5 h / Cmax / Tmax / half-life: 6 mg/kg; for bioavailability: read-out: F (bioavailability)
Procedure: Twelve-week old male Sprague-Dawley rats weighing 307–373 g at the time of the experiment were used. […] The dosing volume of injection was 0.5 mL/kg for the i.m. and s.c. routes and 5 mL/kg for the i.v. route. […] Animal procedure for housing and care was performed according to the National Research Council (NRC) Guide for the Care and Use of Laboratory Animals and the Animal Welfare Standards incorporated in 9 Code of Federal Regulations Part 3, 1991. The animals had 12 hr light/dark cycles and at least 10 room volumes per hour with no recirculation of air. Purina certified rodent chow and water was provided ad libitum.
Blood samples were collected via a jugular vein catheter at each of the following time points: 2, 5, 10, 20, 45, 60, 90 min and 2, 4, 8 hr. […] The samples were vortexed, centrifuged and the supernatants removed. The supernatants were evaporated to dryness and reconstituted in a solvent mixture containing 50/50/0.1 acetronile/water/formic acid (v/v/v) with 10ng/mL hexyl nicotinate as internal standard. […] Rat brains were collected at 10, 60 or 90 min, and 8 hr post dose and frozen at -70°C. On the day of the analysis, the brains were homogenized in PBS using 4 parts phosphate buffer and 1 part brain (g/g). […] The lower limit of quantitation of the LC-MS/MS was 20.0 ng/ml for plasma and 100 ng/g for brain.
Parameters were calculated for each individual animal. The peak concentration in plasma (Cmax) and the corresponding time of maximum concentration (Tmax) were determined directly from the data. The area under the plasma concentration-time curve (AUC) from time 0–8 hr was calculated using the log/linear trapezoidal (i.v. route) or linear up/log down trapezoidal (i.m. and s.c routes) methods. The dose administered was input to the program as mg/kg, and as a result no additional corrections for individual body weights of the animals were necessary. The following parameters and constants were determined for the three groups: observed maximum plasma concentration (Cmax), time to maximum plasma concentration (Tmax), area under the plasma concentration-time curve to the last time point (AUClast), area under the plasma concentration-time curve extrapolated to infinity (AUCinf), terminal phase elimination half-life (t1/2). Bioavailability (F) after i.m. and s.c. administration was calculated using their respective AUCinf values divided by the AUCinf value of the i.v. group.

[3] = Metabolic stability / metabolite detection in human liver microsomes
Procedure: (§1) Pooled male and female human and rat liver microsomes were obtained commercially from BD Bioscience (San Jose, CA) and Xenotech (Lenexa, KS), respectively. […] Reactions were started by the addition of microsomes and stopped by removing 100 μL aliquots at each time point. […] As positive control, 10μM midazolam was incubated with microsomes for 0, 15, 30 and 60 min in a 37°C water bath and with heat-inactivated microsomes for 0 and 60 min. […] All assays were done in duplicates.
(§2) Reactions were stopped by removing 150 μL aliquots at 0, 5, 15, and 30 min and mixing with acetonitrile containing hexyl nicotinate as internal standard. […] Samples were analyzed in full-scan mode with MS/MS product-ion spectra generated for detected metabolite masses. This was performed using the EMS (enhanced MS scan) mode of the mass spectrometer with IDA (independent data acquisition) experiments to produce MS/MS product-ion spectra for masses detected at sufficient intensities. […] All assays were done in duplicate.

[4] = 4R plasma stability in human plasma; type: in vitro ADME; conditions: 10 μM 4R, 0-60 min at 37°C
Procedure: The samples were centrifuged at 18,000 x g for 10 min and the supernatants (100–250 μL) transferred to an HPLC vial containing 900 μl of 60% acetonitrile. The LC-MS/MS analysis was carried out using a high-performance liquid chromatography system consisting of a Shimadzu LC-20AD pump, (Shimadzu Scientific Instruments, Columbia, MA), and a CTC analytics PAL autosampler operating at 10°C (Leap technologies, Carrboro, NC). The MS instrument used was a 4000 QTrap triple quadrupole tandem mass spectrometer (Applied Biosystems/MDS Sciex, Foster City, CA). Electrospray ionization in positive ion mode (ESI+) was used. […] All samples were assayed in duplicate.

[5] = Metabolic stability / metabolite detection in rat liver microsomes
Procedure: as §1, §2

[6] = Solubility of 4R in dosing vehicle; type: physicochemical; conditions: 12 mg/mL in 10% DMSO and 90% PEG400, room temperature
Procedure: The solution was sterile filtered using a Millipore Millex-GS 0.22 μm syringe filter. Dose formulations were prepared on Day 1 prior to dose administration and were maintained at room temperature until administration to the animals.

[7] = male, Sprague-Dawley, rat, plasma, im, 6 mg/kg i.m.
[8] = male, Sprague-Dawley, rat, plasma, iv, 6 mg/kg i.v.
[9] = male, Sprague-Dawley, rat, plasma, sc, 6 mg/kg s.c.
[10] = 10 μM, 5 min, metabolite detection experiment
[11] = 10 μM, 15 min, metabolite detection experiment
[12] = 50 μM, 30 min, metabolite detection experiment
[13] = both, human, liver microsomes, pH 7.4
[14] = both, rat, liver microsomes, pH 7.4
[15] = 10 μM, heat-inactivated microsomes, 60 min

## C/C1=C\[C@H](O)C[C@@](C)(O)/C=C/C(C(C)C)CC/C(C)=C/CC1 (stereo partly drawn) [4R, (1S, 2E, 4R, 6R, 7E, 11E)-cembra-2,7,11-triene-4,6-diol]
[1]; 0-60 min at 37°C
  mean percent 4R content versus control: 97–101%
[1]; 60 min at room temperature
  mean percent 4R content: 96%
[2]; 6 mg/kg i.m.
  Brain Cmax: 329 ng/g and 329 ± 50 ng/g
  time to maximum brain level: 90 min
[2]; 6 mg/kg i.m., by 8 hr post dose
  plasma 4R level: below the LLOQ
[2]; 6 mg/kg i.v.
  brain Cmax, times higher than s.c. or i.m.: 20 times
[2]; 6 mg/kg i.v., at 10 min
  Brain Cmax: 6516 ng/g and 6516 ± 1091 ng/g
[2]; 6 mg/kg i.v., post dose
  time to reach the brain: ≤ 10 min
[2]; 6 mg/kg s.c.
  Brain Cmax: 323 ng/g and 323 ± 90 ng/g
  time to maximum brain level: 90 min
[2]; 6 mg/kg s.c. or i.m.
  Brain Cmax: 300 to 400 ng/mL
[2]; 6 mg/kg s.c., at 90 min
  maximum mean 4R brain level: 323 ± 90
[2]; 6 mg/kg s.c., by 8 hr post dose
  plasma 4R level: below the LLOQ
[2]; male, Sprague-Dawley, rat, im, 6 mg/kg i.m.
  Kp at 1.5 h: 2.49
[2]; male, Sprague-Dawley, rat, sc, 6 mg/kg s.c.
  Kp at 1.5 h: 2.48
[2]; male, Sprague-Dawley, rat, brain, intravenous, 6 mg/kg i.v., at 1 hr post dose
  concentration at 1 hr: 3000 ± 771 ng/g
[2]; male, Sprague-Dawley, rat, im, 6 mg/kg i.m., plasma
  AUC(0-inf): 395 ± 138 ng·h/mL
[2]; male, Sprague-Dawley, rat, iv, 6 mg/kg i.v., plasma
  AUC(0-inf): 1140 ± 224 ng·h/mL
[2]; [7]
  Cmax: 163 ng/mL
  Tmax: ~1 h
[2]; male, Sprague-Dawley, rat, plasma, im, 6 mg/kg i.m., male rats, read-out: t1/2 (converted)
  half-life: ~1.5 h
[2]; male, Sprague-Dawley, rat, plasma, intramuscular, 6 mg/kg i.m., AUCinf relative to i.v.
  bioavailability: 35%
[2]; male, Sprague-Dawley, rat, plasma, intramuscular, 6 mg/kg i.m., at 1 hr
  concentration at 1 hr: 157 ± 86 ng/mL
[2]; male, Sprague-Dawley, rat, plasma, intravenous, 6 mg/kg i.v., at 5 min
  concentration at 5 min: 975 ± 104 ng/mL
[2]; male, Sprague-Dawley, rat, plasma, intravenous, 6 mg/kg i.v., by 8 hr post dose
  concentration at 8 hr: < 20 ng/mL
[2]; [8]
  Cmax: 1020 ± 49 ng/mL
  bioavailability: 100%
[2]; male, Sprague-Dawley, rat, plasma, iv, 6 mg/kg i.v., male rats, read-out: t1/2 (converted)
  half-life: 0.6 ± 0.1 h
[2]; male, Sprague-Dawley, rat, plasma, iv, 6 mg/kg i.v., read-out: elimination t1/2
  half-life: 0.6 h
[2]; [9]
  Cmax: 138 ± 28 ng/mL
  Tmax: 1 h
[2]; male, Sprague-Dawley, rat, plasma, sc, 6 mg/kg s.c., male rats, read-out: t1/2 (converted)
  half-life: ~1.5 h
[2]; male, Sprague-Dawley, rat, plasma, subcutaneous, 6 mg/kg s.c., AUCinf relative to i.v.
  bioavailability: 41%
[2]; male, Sprague-Dawley, rat, plasma, subcutaneous, 6 mg/kg s.c., at 1 hr
  concentration at 1 hr: 134 ± 34 ng/mL
[2]; male, Sprague-Dawley, rat, sc, 6 mg/kg s.c., plasma
  AUC(0-inf): 466 ± 56 ng·h/mL
[3]; [10]
  percent 4R remaining: 18%
[3]; [11]
  percent 4R remaining: less than 2%
[3]; [12]
  mean percent 4R remaining: ≤ 7.3%
[3]; [13]
  remaining at 5 min, 1 μM: 8%
  remaining at 5 min, 10 μM: 15%
  remaining at 0.25 h, 1 μM: 4%
  remaining at 0.25 h, 10 μM: < 2%
[4]
  mean percent 4R content versus control: 96–103%
[5]; [10]
  percent 4R remaining: 34%
[5]; [11]
  percent 4R remaining: less than 2%
[5]; [12]
  mean percent 4R remaining: ≤ 7.3%
[5]; [14]
  remaining at 5 min, 1 μM: 19%
  remaining at 5 min, 10 μM: 29%
  remaining at 0.25 h, 1 μM: 4%
  remaining at 0.25 h, 10 μM: < 2%
[6]
  appearance of 4R formulation (solubility): clear colorless solution

## Cc1ncc2n1-c1ccc(Cl)cc1C(c1ccccc1F)=NC2 [MDZ, Midazolam, reference compound]
[3]; [15]
  percent remaining with heat-inactivated microsomes: 89%
[5]; [15]
  percent remaining with heat-inactivated microsomes: 108%
